Source: ChEMBL document CHEMBL6092179, “Discovery of CLKs inhibitors for the treatment of non-small cell lung cancer” (Eur J Med Chem, 2024)
Activity calls are given as the source filed them. The rule behind the calls is not given here.

Columns and labels:
[1] = target: T1, Dual specificity protein kinase CLK3 (Homo sapiens, UniProt P49761); assay: Inhibition of CLK3 (unknown origin) by ADP-Glo assay
Target sequence in this assay (P49761 whole entry): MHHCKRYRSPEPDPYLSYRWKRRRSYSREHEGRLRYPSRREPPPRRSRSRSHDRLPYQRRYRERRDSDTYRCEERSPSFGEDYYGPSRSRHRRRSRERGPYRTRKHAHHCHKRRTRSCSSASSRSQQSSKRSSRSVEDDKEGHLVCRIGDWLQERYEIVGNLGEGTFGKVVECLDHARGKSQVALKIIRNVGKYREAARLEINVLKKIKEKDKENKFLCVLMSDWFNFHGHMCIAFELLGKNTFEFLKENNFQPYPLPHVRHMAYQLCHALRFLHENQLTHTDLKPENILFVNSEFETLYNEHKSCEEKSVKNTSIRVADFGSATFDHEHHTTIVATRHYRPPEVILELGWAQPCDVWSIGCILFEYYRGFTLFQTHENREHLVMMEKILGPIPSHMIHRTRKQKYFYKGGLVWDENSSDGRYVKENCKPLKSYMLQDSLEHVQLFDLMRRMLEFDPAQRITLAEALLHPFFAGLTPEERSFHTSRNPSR

[2] = target: T2, Dual specificity protein kinase CLK1 (Homo sapiens, UniProt P49759); assay: Inhibition of CLK1 (unknown origin) by ADP-Glo assay
Target sequence in this assay (P49759 whole entry): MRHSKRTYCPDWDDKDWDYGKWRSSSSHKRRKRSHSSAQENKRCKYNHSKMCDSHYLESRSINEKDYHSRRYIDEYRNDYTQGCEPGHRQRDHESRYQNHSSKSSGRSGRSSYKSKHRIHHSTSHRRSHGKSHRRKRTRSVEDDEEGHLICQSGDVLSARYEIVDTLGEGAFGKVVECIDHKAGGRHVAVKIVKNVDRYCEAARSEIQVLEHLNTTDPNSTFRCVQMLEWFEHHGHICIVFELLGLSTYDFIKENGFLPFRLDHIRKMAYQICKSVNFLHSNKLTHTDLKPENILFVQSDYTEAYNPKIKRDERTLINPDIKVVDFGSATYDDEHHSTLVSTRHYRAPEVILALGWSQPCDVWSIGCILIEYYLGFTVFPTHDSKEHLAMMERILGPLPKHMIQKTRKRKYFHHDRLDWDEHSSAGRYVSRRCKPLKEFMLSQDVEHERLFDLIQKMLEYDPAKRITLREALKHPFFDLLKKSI

[3] = target: T2, Dual specificity protein kinase CLK1; assay: Inhibition of CLK in human NCI-H1299 cells assessed as downregulation of SRSF4 phosphorylation at 0.1 to 1 uM incubated for 1 hr by Western blotting analysis; type: cell-based; settings: dose 0.1-1 µM
Target sequence in this assay (P49759 whole entry, looked up): as the sequence (P49759 whole entry) above

[4] = target: T2, Dual specificity protein kinase CLK1; assay: Inhibition of CLK in human NCI-H1299 cells assessed as downregulation of SRSF5 phosphorylation at 0.1 to 1 uM incubated for 1 hr by Western blotting analysis; type: cell-based; settings: dose 0.1-1 µM
Target sequence in this assay (P49759 whole entry, looked up): as the sequence (P49759 whole entry) above

[5] = target: T2, Dual specificity protein kinase CLK1; assay: Inhibition of CLK in human NCI-H1299 cells assessed as downregulation of SRSF6 phosphorylation at 0.1 to 1 uM incubated for 1 hr by Western blotting analysis; type: cell-based; settings: dose 0.1-1 µM
Target sequence in this assay (P49759 whole entry, looked up): as the sequence (P49759 whole entry) above

[6] = target: T1, Dual specificity protein kinase CLK3; assay: Inhibition of CLK3 (unknown origin) at 100 nM by ADP-Glo assay relative to control
Target sequence in this assay (P49761 whole entry, looked up): as the sequence (P49761 whole entry) above

[7] = target: Dual specificity protein kinase CLK4 (Homo sapiens, UniProt Q9HAZ1); assay: Inhibition of CLK4 (unknown origin) at 100 nM by ADP-Glo assay relative to control
[8] = target: Homeodomain-interacting protein kinase 1 (Homo sapiens) (UniProt Q86Z02); assay: Inhibition of HIPK1 (unknown origin) at 100 nM by ADP-Glo assay relative to control
NCI-H1299 [9] = assay: Induction of apoptosis in human NCI-H1299 cells assessed as viable cells at 0.1 uM incubated for 24 hrs by annexin V-FITC/PI staining based flow cytometric analysis (reference value: 95 %); type: functional; settings: read-out: Activity
NCI-H1299 [10] = assay: Induction of apoptosis in human NCI-H1299 cells assessed as viable cells at 0.25 uM incubated for 24 hrs by annexin V-FITC/PI staining based flow cytometric analysis (reference value: 95 %); type: functional; settings: read-out: Activity
NCI-H1299 [11] = assay: Induction of apoptosis in human NCI-H1299 cells assessed as viable cells at 0.5 uM incubated for 24 hrs by annexin V-FITC/PI staining based flow cytometric analysis (reference value: 95 %); type: functional; settings: read-out: Activity
NCI-H1299 [12] = assay: Induction of apoptosis in human NCI-H1299 cells assessed as viable cells at 1 uM incubated for 24 hrs by annexin V-FITC/PI staining based flow cytometric analysis (reference value: 95 %); type: functional; settings: read-out: Activity
NCI-H1299 [13] = assay: Induction of apoptosis in human NCI-H1299 cells assessed as early apoptotic cells at 0.5 uM incubated for 24 hrs by annexin V-FITC/PI staining based flow cytometric analysis (reference value: 0.49 %); type: functional
NCI-H1299 [14] = assay: Induction of apoptosis in human NCI-H1299 cells assessed as late apoptotic cells at 0.1 uM incubated for 24 hrs by annexin V-FITC/PI staining based flow cytometric analysis (reference value: 2.23 %); type: functional
NCI-H1299 [15] = assay: Induction of apoptosis in human NCI-H1299 cells assessed as late apoptotic cells at 0.25 uM incubated for 24 hrs by annexin V-FITC/PI staining based flow cytometric analysis (reference value: 2.23 %); type: functional
NCI-H1299 [16] = assay: Induction of apoptosis in human NCI-H1299 cells assessed as late apoptotic cells at 0.5 uM incubated for 24 hrs by annexin V-FITC/PI staining based flow cytometric analysis (reference value: 2.23 %); type: functional
NCI-H1299 [17] = assay: Induction of apoptosis in human NCI-H1299 cells assessed as late apoptotic cells at 1 uM incubated for 24 hrs by annexin V-FITC/PI staining based flow cytometric analysis (reference value: 2.23 %); type: functional
NCI-H1299 [18] = assay: Induction of apoptosis in human NCI-H1299 cells assessed as necrotic cells at 0.1 uM incubated for 24 hrs by annexin V-FITC/PI staining based flow cytometric analysis (reference value: 2.28 %); type: functional
NCI-H1299 [19] = assay: Induction of apoptosis in human NCI-H1299 cells assessed as necrotic cells at 0.25 uM incubated for 24 hrs by annexin V-FITC/PI staining based flow cytometric analysis (reference value: 2.28 %); type: functional
NCI-H1299 [20] = assay: Induction of apoptosis in human NCI-H1299 cells assessed as necrotic cells at 1 uM incubated for 24 hrs by annexin V-FITC/PI staining based flow cytometric analysis (reference value: 2.28 %); type: functional
NCI-H1299 [21] = assay: Induction of apoptosis in human NCI-H1299 cells at 0.1 to 2.5 uM incubated for 24 hrs by annexin V-FITC/PI staining based flow cytometric analysis relative to control; type: functional; settings: dose 0.1-2.5 µM
NCI-H1299 [22] = assay: Inhibition of Wnt pathway in human NCI-H1299 cells assessed as downregulation of beta-catenin phosphorylation at 0.1 to 1 uM incubated for 12 hrs by Western blotting analysis; type: cell-based; settings: dose 0.1-1 µM
NCI-H1299 [23] = assay: Inhibition of Wnt pathway in human NCI-H1299 cells assessed as downregulation of Axin2 expression at 0.1 to 1 uM incubated for 48 hrs by Western blotting analysis; type: cell-based; settings: dose 0.1-1 µM
NCI-H1299 [24] = assay: Inhibition of Wnt pathway in human NCI-H1299 cells assessed as downregulation of c-Myc expression at 0.1 to 1 uM incubated for 48 hrs by Western blotting analysis; type: cell-based; settings: dose 0.1-1 µM
NCI-H1299 [25] = assay: Induction of apoptosis in human NCI-H1299 cells assessed as downregulation of AKT expression incubated for 12 hrs by Western blotting analysis; type: functional, cell-based
NCI-H1299 [26] = assay: Induction of apoptosis in human NCI-H1299 cells assessed as downregulation of mTOR expression incubated for 12 hrs by Western blotting analysis; type: functional, cell-based
NCI-H1299 [27] = assay: Inhibition of AKT phosphorylation in human NCI-H1299 cells at 0.1 to 1 uM incubated for 12 hrs by Western blotting analysis; type: cell-based; settings: dose 0.1-1 µM
[28] = target: Serine/threonine-protein kinase mTOR (Homo sapiens) (UniProt P42345); assay: Inhibition of mTOR phosphorylation in human NCI-H1299 cells at 0.1 to 1 uM incubated for 12 hrs by Western blotting analysis; type: cell-based; settings: dose 0.1-1 µM
NCI-H1299 [29] = assay: Induction of autophagy in human NCI-H1299 cells assessed as downregulation of p62 expression at 0.1 to 1 uM incubated for 48 hrs by Western blotting analysis; type: functional, cell-based; settings: dose 0.1-1 µM
NCI-H1299 [30] = assay: Induction of autophagy in human NCI-H1299 cells assessed as effect on LC3II protein expression at 0.1 to 1 uM incubated for 48 hrs by Western blotting analysis; type: functional, cell-based; settings: dose 0.1-1 µM
[31] = system: Osimertinib-resistant NCI-H1975 cell; assay: cells; settings: Homo sapiens, 48 h
Description: Antiproliferative activity against human Osimertinib-resistant NCI-H1975 cell assessed as inhibition of cell growth incubated for 48 hrs by MTT assay

NCI-H1975 = assay: cells; settings: Homo sapiens, NCI-H1975, 48 h
Description: Antiproliferative activity against human NCI-H1975 cells assessed as inhibition of cell growth incubated for 48 hrs by MTT assay

cells = settings: Homo sapiens, Osimertinib-resistant HCC827AR cell, 48 h
Description: Antiproliferative activity against human Osimertinib-resistant HCC827AR cell assessed as inhibition of cell growth incubated for 48 hrs by MTT assay

HCC827 = assay: cells; settings: Homo sapiens, HCC827, 48 h
Description: Antiproliferative activity against human HCC827 cells assessed as inhibition of cell growth incubated for 48 hrs by MTT assay

A549 = assay: cells; settings: Homo sapiens, A549, 48 h
Description: Antiproliferative activity against human A549 cells assessed as inhibition of cell growth incubated for 48 hrs by MTT assay

[32] = system: Osimertinib-resistant NCI-H1975 cell; assay: cells; settings: Homo sapiens, 96 h
Description: Antiproliferative activity against human Osimertinib-resistant NCI-H1975 cell cultured as 3D spheroids assessed as inhibition of cell growth incubated for 96 hrs by CellTiter-Glo luminescence assay

Chain of Homeodomain-interacting protein kinase 1 (Homo sapiens) (Q86Z02 whole entry, looked up): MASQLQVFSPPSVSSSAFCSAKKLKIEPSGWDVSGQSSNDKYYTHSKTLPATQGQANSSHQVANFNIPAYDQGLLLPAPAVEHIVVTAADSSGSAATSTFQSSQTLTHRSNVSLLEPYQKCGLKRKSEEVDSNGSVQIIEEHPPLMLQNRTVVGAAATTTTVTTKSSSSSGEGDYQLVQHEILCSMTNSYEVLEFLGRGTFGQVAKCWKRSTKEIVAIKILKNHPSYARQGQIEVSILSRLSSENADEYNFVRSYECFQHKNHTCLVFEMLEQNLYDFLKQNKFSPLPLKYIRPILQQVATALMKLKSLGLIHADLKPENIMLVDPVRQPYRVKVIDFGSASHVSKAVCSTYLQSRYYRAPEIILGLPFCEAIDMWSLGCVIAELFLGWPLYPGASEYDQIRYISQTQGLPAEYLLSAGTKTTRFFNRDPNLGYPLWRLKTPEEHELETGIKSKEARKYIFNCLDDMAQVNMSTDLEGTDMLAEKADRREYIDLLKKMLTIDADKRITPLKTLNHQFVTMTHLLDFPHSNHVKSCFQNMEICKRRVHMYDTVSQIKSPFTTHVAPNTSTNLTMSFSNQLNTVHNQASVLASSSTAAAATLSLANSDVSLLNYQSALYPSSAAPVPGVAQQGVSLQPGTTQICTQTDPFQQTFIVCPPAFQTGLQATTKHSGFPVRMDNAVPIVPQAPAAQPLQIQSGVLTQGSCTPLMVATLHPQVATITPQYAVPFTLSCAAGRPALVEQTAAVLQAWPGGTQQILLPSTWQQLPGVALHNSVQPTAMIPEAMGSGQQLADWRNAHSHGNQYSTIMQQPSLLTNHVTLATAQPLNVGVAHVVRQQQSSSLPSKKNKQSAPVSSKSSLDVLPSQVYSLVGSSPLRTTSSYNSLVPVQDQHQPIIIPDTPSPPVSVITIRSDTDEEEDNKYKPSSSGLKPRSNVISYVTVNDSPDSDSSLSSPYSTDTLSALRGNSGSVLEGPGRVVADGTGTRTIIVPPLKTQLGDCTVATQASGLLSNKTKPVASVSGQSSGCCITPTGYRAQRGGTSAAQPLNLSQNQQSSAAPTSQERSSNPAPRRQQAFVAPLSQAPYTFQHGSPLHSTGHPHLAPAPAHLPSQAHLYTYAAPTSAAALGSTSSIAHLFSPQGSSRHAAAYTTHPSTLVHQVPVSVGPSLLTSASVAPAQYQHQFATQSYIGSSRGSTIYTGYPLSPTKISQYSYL
Chain of Dual specificity protein kinase CLK4 (Q9HAZ1 whole entry, looked up): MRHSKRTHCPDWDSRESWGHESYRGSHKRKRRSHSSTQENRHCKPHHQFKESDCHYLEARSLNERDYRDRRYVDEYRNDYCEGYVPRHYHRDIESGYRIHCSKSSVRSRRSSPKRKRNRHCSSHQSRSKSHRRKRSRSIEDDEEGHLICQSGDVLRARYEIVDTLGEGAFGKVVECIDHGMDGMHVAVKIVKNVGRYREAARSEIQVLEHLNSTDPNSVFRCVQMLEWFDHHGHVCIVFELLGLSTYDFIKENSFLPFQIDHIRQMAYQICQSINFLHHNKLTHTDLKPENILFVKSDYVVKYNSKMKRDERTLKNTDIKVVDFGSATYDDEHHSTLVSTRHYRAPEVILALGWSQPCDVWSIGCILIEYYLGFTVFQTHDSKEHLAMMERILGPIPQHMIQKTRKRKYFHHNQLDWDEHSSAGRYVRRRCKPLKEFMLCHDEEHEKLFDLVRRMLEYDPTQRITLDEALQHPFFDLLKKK

Compound: FC1(F)CCN(Cc2cncc(-c3ccc4[nH]nc(-c5nc(-c6ccco6)c(-c6ccco6)[nH]5)c4c3)c2)C1
- IC50 [1]: 0.0287 µM
- IC50 [2]: 0.0046 µM
- inhibition [3]: Active; Showed Stronger Inhibition Compared To Indazole 1
- inhibition [4]: Active; Showed Stronger Inhibition Compared To Indazole 1
- inhibition [5]: Active; Showed Stronger Inhibition Compared To Indazole 1
- inhibition [6]: 103%
- inhibition [7]: 95%
- inhibition [8]: 51.4%
- viability at 0.1 µM (NCI-H1299 [9]): 96.2%
- viability at 0.25 µM (NCI-H1299 [10]): 92.1%
- viability at 0.5 µM (NCI-H1299 [11]): 85.7%
- viability at 1 µM (NCI-H1299 [12]): 84.3%
- Activity (NCI-H1299 [13]): 8.27%
- Activity (NCI-H1299 [14]): 1.26%
- Activity (NCI-H1299 [15]): 2.55%
- Activity (NCI-H1299 [16]): 5.16%
- Activity (NCI-H1299 [17]): 5.23%
- Activity (NCI-H1299 [18]): 1.1%
- Activity (NCI-H1299 [19]): 1.78%
- Activity (NCI-H1299 [20]): 0.74%
- Activity (NCI-H1299 [21]): 3.7%
- inhibition (NCI-H1299 [22]): Active
- inhibition (NCI-H1299 [23]): Active
- inhibition (NCI-H1299 [24]): Active
- Activity (NCI-H1299 [25]): Dose-dependent-effect
- Activity (NCI-H1299 [26]): Dose-dependent-effect
- inhibition (NCI-H1299 [27]): Active
- inhibition [28]: Active
- Activity (NCI-H1299 [29]): Active
- Activity (NCI-H1299 [30]): Active
- IC50 [31]: 0.21 µM
- IC50 (NCI-H1975): 0.15 µM
- IC50 (cells): 0.22 µM
- IC50 (HCC827): 0.16 µM
- IC50 (A549): 0.17 µM
- IC50 [32]: 0.238 µM
